Results published in article PMC7402526, “An in vitro quantitative systems pharmacology approach for deconvolving mechanisms of drug-induced, multilineage cytopenias” (PLoS Computational Biology, 2020).
“Also recorded” adds a separate entry of the source.

How the values were obtained:
monocytes (monocyte-lin) = assay: MLTA, Mono: concentration-response and QSP model fit; assay type: cell-based, human; conditions: Homo sapiens, Monocyte, 144 h
Outline: (§1)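 Freeze-thawed primary human bone marrow CD34+ cells were grown in SFEM II with a multi-lineage cytokine cocktail, drug added day 0, six days at 37°C. Lineage counts came from 17-parameter flow with TruCount beads, vehicle-normalized per donor, then fitted by an Emax-based QSP model.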

[1] = tested on: neutrophils (neutrophil-lin); assay: MLTA, Neut: concentration-response and QSP model fit; assay type: cell-based, human; conditions: Homo sapiens, Neutrophil, 144 h
Outline: (§2)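 Values derive from fitting a QSP Emax model (EmaxT 0–2, above 1 denoting added cell killing) to vehicle-normalized lineage counts. Counts were obtained by 17-parameter flow after 6-day culture of human bone marrow CD34+ cells with test article.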

[2] = tested on: monocyte progenitors (monocyte prog); assay: MLTA, MonoP: concentration-response and QSP model fit; assay type: cell-based, human; conditions: Homo sapiens, Monocyte, 144 h
Outline: as §1

[3] = tested on: human bone marrow-derived CD34+ cells differentiated into multiple hematopoietic lineages; assay: MLTA, overall effects across hematopoietic lineages; assay type: cell-based; conditions: 0.2-2500 nM, 6 days, relative to vehicle control
Procedure: A custom optimized cytokine cocktail was developed using commercially available cytokines (Peprotech, New Jersey) to facilitate simultaneous multi-lineage differentiation and self-renewal of freeze-thawed primary human bone marrow-derived CD34+ cells in SFEM II media (cells and media from StemCell Technologies, Vancouver). Cultures were carried out in ultra-low attachment 96-well plates (Corning, New York) with test article added on day 0 and cultured at 37°C, 85% relative humidity, and 5% CO2 for six days before interrogating drug impact via 17-parameter flow cytometry.
The flow cytometry panel used to define hematopoietic subsets was composed of CD34-PECy7, CD90-PECY5, CD38-AF488, CD371-PE, CD45Ra-BV421, CD14-BV605, CD42b-AF647, CD10-PEDazzle594, CD235a-PerCPCy5.5 (BioLegend, California), CD15-BUV395, CD41a-APCH7, CD71-BV786 (BD Biosciences, California), and DAPI for dead cell exclusion (ThermoFisher, California). In short, Day 6 cells were harvested, FcR-blocked (FcR binding inhibitor, ThermoFisher), surface-stained, then analyzed in a buffer containing TruCount Control Beads using a BD LSR Fortessa SORP fitted with a high-throughput sampler (BD Biosciences, California). Data was analyzed in Diva 6.0.2 and exported to CSV where after all cell data was transformed to cell per mL then normalized on a per-donor basis to untreated control wells to determine drug impact.
Donor material was collected and cultured as described above. The number of replicate donor samples per drug ranged from 2–7 and varied per drug (S1 Table). Drug treatment was added at time 0 and cells were maintained in culture for 6 days. Concentrations tested for each drug compound are contained in S1 Table. Concentrations were selected to span a range that is clinically useful. Following treatment, cell populations were measured using flow cytometry. We extracted cell counts from flow cytometry data, normalized to bead counts, and corrected for well volume.
Each well was normalized to the average of six vehicle control wells. For drugs that were tested across multiple runs of the assay, vehicle-normalized donor data were pooled, and we used the average of these pooled data for further modeling. Normalized data used as model inputs are included in S1 Table.
We implemented drug effects using an Emax model for the drug’s effect on each cell type. The 13 maximum effect parameters (EmaxT,C) are unitless and can vary between 0 and 2 and where a subscript, C, represents one of the previously described 13 cell types. We adapted a traditional Emax model using the equations below. We interpreted EmaxT values less than or equal to one as anti-proliferative, and EmaxT values greater than one as indicating a cell-killing mechanism in addition to anti-proliferation. The relationships for these effects are included in the model using the following equations. Eq 2 describes the drug anti-proliferative effect in the net proliferation rate for a given cell type. Eq 3 describes the cell-killing EmaxCK effect.

[4] = tested on: hematopoietic stem cells (HSCs); assay: Multi-lineage toxicity assay (MLTA), HSCs: concentration-response and QSP model fit; assay type: cell-based, human; conditions: Homo sapiens, Hematopoietic stem cell, 144 h
Outline: as §2

[5] = tested on: total dead cells (totalDeadCells); assay: MLTA, total dead cells concentration-response; assay type: cell-based; conditions: Homo sapiens, 144 h, 6 days, normalized to vehicle control, read-out: total_dead normalized cell count
Outline: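 Freeze-thawed primary human bone marrow CD34+ cells in SFEM II with cytokine cocktail, drug added day 0, 6 days at 37°C, 5% CO2. Live/dead counts by 17-parameter flow cytometry with DAPI exclusion, bead-normalized, volume-corrected to cells/mL. Normalized per donor to mean of six vehicle wells; 2–7 donors pooled.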

[6] = tested on: late erythroid cells (Eryth II); assay: MLTA, ErythII: concentration-response and QSP model fit; assay type: cell-based, human; conditions: Homo sapiens, 144 h
Outline: as §2

[7] = tested on: early erythroid cells (Eryth I); assay: MLTA, ErythI: concentration-response and QSP model fit; assay type: cell-based, human; conditions: Homo sapiens, 144 h
Outline: as §1

[8] = QSP model fit of 6-day MLTA data

CS(=O)(=O)N1CCN(Cc2cc3nc(-c4cccc5[nH]ncc45)nc(N4CCOCC4)c3s2)CC1 [pictilisib]
EC50 (monocytes (monocyte-lin); [8]): 1020 nM
activity at 0.0002 µM (monocytes (monocyte-lin); dose 0.2 nM, 6 days, normalized to vehicle control, read-out: Mon normalized cell count): 92.5%
activity at 0.001 µM (monocytes (monocyte-lin); dose 1 nM, 6 days, normalized to vehicle control, read-out: Mon normalized cell count): 90.6%
activity at 0.005 µM (monocytes (monocyte-lin); dose 5 nM, 6 days, normalized to vehicle control, read-out: Mon normalized cell count): 79.5%
activity at 0.025 µM (monocytes (monocyte-lin); dose 25 nM, 6 days, normalized to vehicle control, read-out: Mon normalized cell count): 77.6%
activity at 0.1 µM (monocytes (monocyte-lin); dose 100 nM, 6 days, normalized to vehicle control, read-out: Mon normalized cell count): 61.1%
activity at 0.5 µM (monocytes (monocyte-lin); dose 500 nM, 6 days, normalized to vehicle control, read-out: Mon normalized cell count): 30.9%
activity at 2.5 µM (monocytes (monocyte-lin); dose 2500 nM, 6 days, normalized to vehicle control, read-out: Mon normalized cell count): 12.5%
Emax (monocytes (monocyte-lin); parameter from QSP model fitting, read-out: Emax_drug_Mono): 3.93%
EC50 [1, 8]: 132 nM
activity at 0.0002 µM ([1]; dose 0.2 nM, 6 days, normalized to vehicle control, read-out: Neut normalized cell count): 92.7%
activity at 0.001 µM ([1]; dose 1 nM, 6 days, normalized to vehicle control, read-out: Neut normalized cell count): 82.6%
activity at 0.005 µM ([1]; dose 5 nM, 6 days, normalized to vehicle control, read-out: Neut normalized cell count): 64.5%
activity at 0.025 µM ([1]; dose 25 nM, 6 days, normalized to vehicle control, read-out: Neut normalized cell count): 59.8%
activity at 0.1 µM ([1]; dose 100 nM, 6 days, normalized to vehicle control, read-out: Neut normalized cell count): 30.4%
activity at 0.5 µM ([1]; dose 500 nM, 6 days, normalized to vehicle control, read-out: Neut normalized cell count): 6.17%
activity at 2.5 µM ([1]; dose 2500 nM, 6 days, normalized to vehicle control, read-out: Neut normalized cell count): 0.529%
Emax ([1]; parameter from QSP model fitting, read-out: Emax_drug_Neut): 16.5%
EC50 ([2]; QSP model fit of 6-day MLTA data, read-out: EC50MonoP): 117 nM
activity at 0.0002 µM ([2]; dose 0.2 nM, 6 days, normalized to vehicle control, read-out: MonoPs normalized cell count): 105%
activity at 0.001 µM ([2]; dose 1 nM, 6 days, normalized to vehicle control, read-out: MonoPs normalized cell count): 94.3%
activity at 0.005 µM ([2]; dose 5 nM, 6 days, normalized to vehicle control, read-out: MonoPs normalized cell count): 87.2%
activity at 0.025 µM ([2]; dose 25 nM, 6 days, normalized to vehicle control, read-out: MonoPs normalized cell count): 74.8%
activity at 0.1 µM ([2]; dose 100 nM, 6 days, normalized to vehicle control, read-out: MonoPs normalized cell count): 49%
activity at 0.5 µM ([2]; dose 500 nM, 6 days, normalized to vehicle control, read-out: MonoPs normalized cell count): 30.2%
activity at 2.5 µM ([2]; dose 2500 nM, 6 days, normalized to vehicle control, read-out: MonoPs normalized cell count): 11.3%
Emax ([2]; parameter from QSP model fitting, read-out: Emax_drug_MonoP): 140%
effect on hematopoietic cell numbers across cell types [3]: moderate reduction of cells types; also recorded: decreased most cell types
EC50 [4, 8]: 289 nM
activity at 0.0002 µM ([4]; dose 0.2 nM, 6 days, normalized to vehicle control, read-out: HSCs normalized cell count): 89.1%
activity at 0.001 µM ([4]; dose 1 nM, 6 days, normalized to vehicle control, read-out: HSCs normalized cell count): 102%
activity at 0.005 µM ([4]; dose 5 nM, 6 days, normalized to vehicle control, read-out: HSCs normalized cell count): 88.5%
activity at 0.025 µM ([4]; dose 25 nM, 6 days, normalized to vehicle control, read-out: HSCs normalized cell count): 99.2%
activity at 0.1 µM ([4]; dose 100 nM, 6 days, normalized to vehicle control, read-out: HSCs normalized cell count): 58.1%
activity at 0.5 µM ([4]; dose 500 nM, 6 days, normalized to vehicle control, read-out: HSCs normalized cell count): 28.1%
activity at 2.5 µM ([4]; dose 2500 nM, 6 days, normalized to vehicle control, read-out: HSCs normalized cell count): 8.09%
Emax ([4]; parameter from QSP model fitting, read-out: Emax_drug_HSC): 48.6%
activity at 0.0002 µM ([5]; dose 0.2 nM): 105%
activity at 0.001 µM ([5]; dose 1 nM): 110%
activity at 0.005 µM ([5]; dose 5 nM): 91.5%
activity at 0.025 µM ([5]; dose 25 nM): 93.1%
activity at 0.1 µM ([5]; dose 100 nM): 55.3%
activity at 0.5 µM ([5]; dose 500 nM): 40.1%
activity at 2.5 µM ([5]; dose 2500 nM): 34.3%
EC50 ([6]; QSP model fit of 6-day MLTA data, read-out: EC50ErythII): 191 nM
activity at 0.0002 µM ([6]; dose 0.2 nM, 6 days, normalized to vehicle control, read-out: ErythII normalized cell count): 94.6%
activity at 0.001 µM ([6]; dose 1 nM, 6 days, normalized to vehicle control, read-out: ErythII normalized cell count): 92%
activity at 0.005 µM ([6]; dose 5 nM, 6 days, normalized to vehicle control, read-out: ErythII normalized cell count): 90%
activity at 0.025 µM ([6]; dose 25 nM, 6 days, normalized to vehicle control, read-out: ErythII normalized cell count): 86.7%
activity at 0.1 µM ([6]; dose 100 nM, 6 days, normalized to vehicle control, read-out: ErythII normalized cell count): 55.5%
activity at 0.5 µM ([6]; dose 500 nM, 6 days, normalized to vehicle control, read-out: ErythII normalized cell count): 23.3%
activity at 2.5 µM ([6]; dose 2500 nM, 6 days, normalized to vehicle control, read-out: ErythII normalized cell count): 5.88%
Emax ([6]; parameter from QSP model fitting, read-out: Emax_drug_ErythroidII): 13.6%
activity at 0.0002 µM ([7]; dose 0.2 nM, 6 days, normalized to vehicle control, read-out: ErythI normalized cell count): 110%
activity at 0.001 µM ([7]; dose 1 nM, 6 days, normalized to vehicle control, read-out: ErythI normalized cell count): 107%
activity at 0.005 µM ([7]; dose 5 nM, 6 days, normalized to vehicle control, read-out: ErythI normalized cell count): 107%
activity at 0.025 µM ([7]; dose 25 nM, 6 days, normalized to vehicle control, read-out: ErythI normalized cell count): 100%
activity at 0.1 µM ([7]; dose 100 nM, 6 days, normalized to vehicle control, read-out: ErythI normalized cell count): 92.8%
activity at 0.5 µM ([7]; dose 500 nM, 6 days, normalized to vehicle control, read-out: ErythI normalized cell count): 65.5%
activity at 2.5 µM ([7]; dose 2500 nM, 6 days, normalized to vehicle control, read-out: ErythI normalized cell count): 27.5%
Emax ([7]; parameter from QSP model fitting, read-out: Emax_drug_ErythroidI): 0.03%
